Experiment [1] deals with T1, baculovirus-expressed ALK (Homo sapiens, UniProt Q9UM73).
T1 construct: host or cells: baculovirus expression system
In words: ALK Kinase Assay (ELISA-type, time-resolved fluorescence). The following applies: 1 μM ATP (Km level). It is filed as biochemical. The essentials:
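Substrate coating: phospholipase C-γ, 10 μg/mL in TBS. Kinase step: 30 ng/ml ALK, 15 min, 37° C. Detection and analysis: Eu-N1 PT66 antibody, with IC50 fitted as a sigmoidal variable-slope dose-response curve.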
Background: ELISA stands for enzyme-linked immunosorbent assay.

In experiment [2] the target is T2, c-Met (cytoplasmic domain) (Homo sapiens, UniProt P08581).
T2 construct: 10 ng/mL c-Met (cytoplasmic domain, Invitrogen Corporation #PV3143); purchased Invitrogen Corporation PV3143
The experiment is described as follows: c-Met Kinase Assay (same methods as for ALK, with modifications). The following applies: 1 μM ATP (Km level). It is filed as biochemical. Summed up: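 This plate-based kinase format uses immobilized phospholipase C-γ as substrate, phosphorylated by c-Met cytoplasmic domain (10 ng/mL) at 37° C for 15 minutes.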

Where [3] appears, read: 30 ng/ml ALK, 37° C., 15 minutes, read-out: ALK Activity (ALK kinase inhibition, IC50 class).
Setting [4] is: 10 ng/mL c-Met, read-out: cMet Activity (c-Met kinase inhibition, IC50 class).
The mark [5] stands for this setting: ALK kinase inhibition, read-out: ALK Activity.
Setting [6] is: c-Met kinase inhibition, read-out: cMet Activity.

Structures are written as SMILES. Where two headings read alike, the source gives them in different places.

T2 sequence (P08581 956-1390 limits assumed): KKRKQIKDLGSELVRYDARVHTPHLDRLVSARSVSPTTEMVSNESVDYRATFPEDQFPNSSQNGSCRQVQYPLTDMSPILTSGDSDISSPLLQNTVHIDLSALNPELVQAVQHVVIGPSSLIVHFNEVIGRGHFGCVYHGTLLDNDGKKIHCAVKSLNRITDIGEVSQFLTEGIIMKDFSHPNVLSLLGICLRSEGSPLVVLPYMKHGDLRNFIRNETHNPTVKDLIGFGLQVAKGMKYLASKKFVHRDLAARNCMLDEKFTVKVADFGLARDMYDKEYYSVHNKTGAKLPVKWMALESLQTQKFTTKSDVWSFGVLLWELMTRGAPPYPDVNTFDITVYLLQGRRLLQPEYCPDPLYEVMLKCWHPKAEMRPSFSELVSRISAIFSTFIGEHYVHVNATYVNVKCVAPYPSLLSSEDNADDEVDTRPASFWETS
T1 sequence (Q9UM73 19-1620): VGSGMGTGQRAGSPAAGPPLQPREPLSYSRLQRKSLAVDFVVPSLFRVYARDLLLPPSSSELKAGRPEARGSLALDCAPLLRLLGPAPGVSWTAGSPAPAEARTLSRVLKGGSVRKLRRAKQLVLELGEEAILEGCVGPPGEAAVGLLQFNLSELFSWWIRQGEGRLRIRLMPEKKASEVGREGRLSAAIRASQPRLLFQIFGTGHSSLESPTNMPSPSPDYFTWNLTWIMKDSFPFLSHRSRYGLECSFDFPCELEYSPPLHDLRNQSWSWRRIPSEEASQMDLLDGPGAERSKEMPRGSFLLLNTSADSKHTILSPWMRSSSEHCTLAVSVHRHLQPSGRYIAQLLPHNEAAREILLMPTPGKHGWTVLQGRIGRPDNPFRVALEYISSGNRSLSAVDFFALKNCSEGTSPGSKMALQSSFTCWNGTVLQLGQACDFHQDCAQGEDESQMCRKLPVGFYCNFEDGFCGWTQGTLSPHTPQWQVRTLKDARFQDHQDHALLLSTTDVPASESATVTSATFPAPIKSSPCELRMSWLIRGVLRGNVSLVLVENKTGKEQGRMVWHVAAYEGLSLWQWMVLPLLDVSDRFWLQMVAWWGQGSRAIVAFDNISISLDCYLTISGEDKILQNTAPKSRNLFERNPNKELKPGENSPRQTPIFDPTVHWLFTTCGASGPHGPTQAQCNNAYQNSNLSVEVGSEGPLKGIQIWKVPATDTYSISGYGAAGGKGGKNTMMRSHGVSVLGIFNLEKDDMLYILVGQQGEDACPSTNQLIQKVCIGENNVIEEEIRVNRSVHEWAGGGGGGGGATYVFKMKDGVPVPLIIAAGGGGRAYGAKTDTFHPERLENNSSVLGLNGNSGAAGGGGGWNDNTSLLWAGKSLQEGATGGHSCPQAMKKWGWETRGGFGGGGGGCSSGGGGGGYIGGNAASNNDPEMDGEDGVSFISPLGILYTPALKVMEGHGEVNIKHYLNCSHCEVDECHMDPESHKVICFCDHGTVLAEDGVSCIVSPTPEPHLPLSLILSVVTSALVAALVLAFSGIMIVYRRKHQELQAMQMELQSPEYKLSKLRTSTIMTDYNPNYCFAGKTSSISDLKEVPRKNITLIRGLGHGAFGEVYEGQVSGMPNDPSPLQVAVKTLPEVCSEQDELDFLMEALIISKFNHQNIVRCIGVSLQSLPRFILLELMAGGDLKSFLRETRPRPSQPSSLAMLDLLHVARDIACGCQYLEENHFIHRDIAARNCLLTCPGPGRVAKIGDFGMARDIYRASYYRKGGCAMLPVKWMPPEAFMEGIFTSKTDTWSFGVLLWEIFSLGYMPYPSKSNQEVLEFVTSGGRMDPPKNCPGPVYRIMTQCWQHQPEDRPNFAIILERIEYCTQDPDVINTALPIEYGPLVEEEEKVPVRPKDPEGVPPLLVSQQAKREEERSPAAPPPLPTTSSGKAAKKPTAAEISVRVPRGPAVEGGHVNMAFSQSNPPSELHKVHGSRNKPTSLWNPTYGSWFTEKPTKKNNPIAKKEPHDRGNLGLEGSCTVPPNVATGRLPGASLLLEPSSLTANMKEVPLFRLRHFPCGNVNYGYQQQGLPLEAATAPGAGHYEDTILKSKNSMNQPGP

As to `COc1cc2c(cc1Nc1ncc(Cl)c(N[C@H]3[C@@H](C(N)=O)[C@@H]4C=C[C@H]3C4)n1)CCC(NCCO)CC2` (single isomer, unassigned) [Example 1096], the figures for the IC50 in experiment [1] (setting [3]) and in experiment [2] (setting [4]) were below 0.1 µM and above 10 µM, respectively.
As for `COc1cc2c(cc1Nc1ncc(Cl)c(N[C@H]3[C@@H](C(N)=O)[C@@H]4C=C[C@H]3C4)n1)CCC(NCCO)CC2` (single isomer, unassigned) [Example 1097], the IC50 was below 0.1 µM in experiment [1] (setting [3]) and above 10 µM in experiment [2] (setting [4]).
For `COc1cc2c(cc1Nc1ncc(Cl)c(N[C@@H]3CCCC[C@H]3NS(C)(=O)=O)n1)CCC(N1CCN(C)CC1)CC2` (single isomer, unassigned) [Example 1101] the same measures were below 0.1 µM and above 10 µM.
Take `COc1cc2c(cc1Nc1ncc(Cl)c(N[C@@H]3CCCC[C@H]3NS(C)(=O)=O)n1)CCC(N1CCN(C)CC1)CC2` (single isomer, unassigned) [Example 1102]: the IC50 in experiment [1] (setting [3]) and in experiment [2] (setting [4]) was below 0.1 µM throughout.
With `CCN1C(=O)[C@H](N)CCc2c1ccc(Nc1ncc(Cl)c(N[C@H]3[C@@H](C(N)=O)[C@@H]4C=C[C@H]3C4)n1)c2OC` (single isomer, unassigned) [Example 1331], the IC50 is below 0.1 µM in experiment [1] (setting [3]) and above 10 µM in experiment [2] (setting [4]).
As to `CCN1C(=O)[C@@H](N)CCc2c1ccc(Nc1ncc(Cl)c(N[C@H]3[C@@H](C(N)=O)[C@@H]4C=C[C@H]3C4)n1)c2OC` (single isomer, unassigned) [Example 1332], the IC50 was below 0.1 µM in experiment [1] (setting [3]) and above 10 µM in experiment [2] (setting [4]).
The matching figures for `CCN1C(=O)[C@H](N2CCOCC2)CCc2c1ccc(Nc1ncc(Cl)c(N[C@H]3[C@@H](C(N)=O)[C@@H]4C=C[C@H]3C4)n1)c2OC` (single isomer, unassigned) [Example 1344]: below 0.1 µM and above 10 µM.
With `CCN1C(=O)[C@@H](N2CCOCC2)CCc2c1ccc(Nc1ncc(Cl)c(N[C@H]3[C@@H](C(N)=O)[C@@H]4C=C[C@H]3C4)n1)c2OC` (single isomer, unassigned) [Example 1345], the values for the IC50 in experiment [1] (setting [3]) and in experiment [2] (setting [4]) were below 0.1 µM and above 10 µM, respectively.
Regarding `CCN1C(=O)[C@H](N(C)C)CCc2c1ccc(Nc1ncc(Cl)c(N[C@H]3[C@@H](C(N)=O)[C@@H]4C=C[C@H]3C4)n1)c2OC` (single isomer, unassigned) [Example 1346], the IC50 was below 0.1 µM in experiment [1] (setting [3]) and 1 to 10 µM in experiment [2] (setting [4]).
For `CCN1C(=O)[C@@H](N(C)C)CCc2c1ccc(Nc1ncc(Cl)c(N[C@H]3[C@@H](C(N)=O)[C@@H]4C=C[C@H]3C4)n1)c2OC` (single isomer, unassigned) [Example 1347] the same measures were below 0.1 µM and 1 to 10 µM.
The matching figures for `CCN1C(=O)[C@H](NC(=O)COC)CCc2c1ccc(Nc1ncc(Cl)c(N[C@H]3[C@@H](C(N)=O)[C@@H]4C=C[C@H]3C4)n1)c2OC` (single isomer, unassigned) [Example 1350]: below 0.1 µM and above 10 µM.
For `CCN1C(=O)[C@@H](NC(=O)COC)CCc2c1ccc(Nc1ncc(Cl)c(N[C@H]3[C@@H](C(N)=O)[C@@H]4C=C[C@H]3C4)n1)c2OC` (single isomer, unassigned) [Example 1351] the same measures were below 0.1 µM and above 10 µM.
Consider `CCN1C(=O)[C@H](NC(=O)CN(C)C)CCc2c1ccc(Nc1ncc(Cl)c(N[C@H]3[C@@H](C(N)=O)[C@@H]4C=C[C@H]3C4)n1)c2OC` (single isomer, unassigned) [Example 1354], for which the figures for the IC50 in experiment [1] (setting [3]) and in experiment [2] (setting [4]) were below 0.1 µM and above 10 µM, respectively.
For `CCN1C(=O)[C@@H](NC(=O)CN(C)C)CCc2c1ccc(Nc1ncc(Cl)c(N[C@H]3[C@@H](C(N)=O)[C@@H]4C=C[C@H]3C4)n1)c2OC` (single isomer, unassigned) [Example 1355] the same measures were below 0.1 µM and above 10 µM.
The matching figures for `CCN1C(=O)[C@H](NC(=O)C2CC2)CCc2c1ccc(Nc1ncc(Cl)c(N[C@H]3[C@@H](C(N)=O)[C@@H]4C=C[C@H]3C4)n1)c2OC` (single isomer, unassigned) [Example 1357]: below 0.1 µM and above 10 µM.
For `CCN1C(=O)[C@@H](NC(=O)C2CC2)CCc2c1ccc(Nc1ncc(Cl)c(N[C@H]3[C@@H](C(N)=O)[C@@H]4C=C[C@H]3C4)n1)c2OC` (single isomer, unassigned) [Example 1358] the same measures were below 0.1 µM and above 10 µM.
For the compound `CNC(=O)c1ccccc1Nc1nc(Nc2ccc3c(c2)CCCC(=O)N3)ncc1Cl` [Example 2, 2-[5-Chloro-2-(2-oxo-2,3,4,5-tetrahydro-1H-benzo[b]azepin-7-ylamino)-pyrimidin-4-ylamino]-N-methyl-benzamide], the IC50 in experiment [1] (setting [5]) and in experiment [2] (setting [6]) was below 0.1 µM in each case.
In the case of `CNS(=O)(=O)c1ccccc1Nc1nc(Nc2ccc3c(c2)CCCC(=O)N3)ncc1Cl` [Example 5, 2-[5-Chloro-2-(2-oxo-2,3,4,5-tetrahydro-1H-benzo[b]azepin-7-ylamino)-pyrimidin-4-ylamino]-N-methyl-benzenesulfonamide], the IC50 in experiment [1] (setting [5]) and in experiment [2] (setting [6]) was below 0.1 µM in each case.
Take `CN1C(=O)CCCc2cc(Nc3ncc(Cl)c(Nc4ccccc4C(=O)NCCO)n3)ccc21` [Example 6, 2-[5-Chloro-2-(1-methyl-2-oxo-2,3,4,5-tetrahydro-1H-benzo[b]azepin-7-ylamino)-pyrimidin-4-ylamino]-N-(2-hydroxy-ethyl)-benzamide]: the IC50 in experiment [1] (setting [5]) and in experiment [2] (setting [6]) was below 0.1 µM each time.
Consider `CNS(=O)(=O)c1ccccc1Nc1nc(Nc2ccc3c(c2)CCCC(=O)N3CC(=O)OC)ncc1Cl` [Example 8, {7-[5-Chloro-4-(2-methylsulfamoyl-phenylamino)-pyrimidin-2-ylamino]-2-oxo-2,3,4,5-tetrahydro-benzo[b]azepin-1-yl}-acetic acid methyl ester], for which the IC50 in experiment [1] (setting [5]) and in experiment [2] (setting [6]) was below 0.1 µM in each case.
Turning to `CNS(=O)(=O)c1ccccc1Nc1nc(Nc2ccc3c(c2)CCCC(=O)N3CC(=O)O)ncc1Cl` [Example 9, {7-[5-Chloro-4-(2-methylsulfamoyl-phenylamino)-pyrimidin-2-ylamino]-2-oxo-2,3,4,5-tetrahydro-benzo[b]azepin-1-yl}-acetic acid], the IC50 in experiment [1] (setting [5]) and in experiment [2] (setting [6]) was below 0.1 µM in each case.
With `CNS(=O)(=O)c1ccccc1Nc1nc(Nc2ccc3c(c2)CCCC(=O)N3CC(=O)N2CCN(C)CC2)ncc1Cl` [Example 10, 2-(5-Chloro-2-{1-[2-(4-methyl-piperazin-1-yl)-2-oxo-ethyl]-2-oxo-2,3,4,5-tetrahydro-1H-benzo[b]azepin-7-ylamino}-pyrimidin-4-ylamino)-N-methyl-benzenesulfonamide], the IC50 in experiment [1] (setting [5]) and in experiment [2] (setting [6]) was below 0.1 µM throughout.
Take `CNC(=O)c1ccccc1Nc1nc(Nc2ccc3c(c2)CCCNC3=O)ncc1Cl` [Example 11, 2-[5-Chloro-2-(1-oxo-2,3,4,5-tetrahydro-1H-benzo[c]azepin-7-ylamino)-pyrimidin-4-ylamino]-N-methyl-benzamide]: the IC50 in experiment [1] (setting [5]) and in experiment [2] (setting [6]) was below 0.1 µM in each case.
Consider `CNC(=O)c1ccccc1Nc1nc(Nc2ccc3c(c2)COC[C@@H]2CCCN32)ncc1Cl` [Example 12, 2-{5-Chloro-2-[(S)-(2,3,3a,4-tetrahydro-1H,6H-5-oxa-10b-aza-benzo[e]azulen-8-yl)amino]-pyrimidin-4-ylamino}-N-methyl-benzamide], for which the IC50 in experiment [1] (setting [5]) and in experiment [2] (setting [6]) was below 0.1 µM in each case.

Source of the values: US8148391B2 (Cephalon, Inc., priority 2006, dated 2012).
